Measurements taken from publication doi:10.1101/2025.06.05.657999, “A secreted fatty acid- and retinol- binding protein from Heligmosomoides polygyrus suppresses host macrophage polarization” (bioRxiv, 2025).

Tests used:
Hp-FAR-2 [1] = molecular target: T1, Hp-FAR-2 (Heligmosomoides polygyrus, UniProt A0A183GLK6); assay: fluorescence titration, one-site fit; format: binding
T1 construct: mature protein, residues 18-180 of 180 (signal peptide removed), N-terminal 6-His tag, pET histev N'term, E. coli BL21(DE3), Ni-NTA and SEC; ~17-18 kDa on SDS-PAGE
T1 sequence (A0A183GLK6 entry or part of it): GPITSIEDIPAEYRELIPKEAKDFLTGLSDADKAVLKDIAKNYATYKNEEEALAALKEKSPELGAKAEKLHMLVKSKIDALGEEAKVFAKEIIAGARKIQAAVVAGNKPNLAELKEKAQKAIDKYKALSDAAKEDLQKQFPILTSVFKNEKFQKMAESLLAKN

Hp-FAR-2 [2] = molecular target: T1, Hp-FAR-2; assay: fluorescence titration of retinol, one-site fit; format: binding

SMILES	Kd (Hp-FAR-2 [1]) [µM]	Kd (Hp-FAR-2 [2]) [µM]
CN(C)c1cccc2c(S(=O)(=O)NCCCCCCCCCCC(=O)O)cccc12 [DAUDA]	2.65	
CC1=C(/C=C/C(C)=C/C=C/C(C)=C/CO)C(C)(C)CCC1 [retinol]		6.55
